13 compounds from patent US11129816B2, “Ring-fused thiazolino 2-pyridones in combination with a drug against tuberculosis” (QURETECH BIO AB, priority 2017, dated 2021) can be followed below.

One assay deals with Mycobacterium tuberculosis Erdman. The experiment in a line: Treatment of Mycobacterium tuberculosis Erdman liquid culture with Q203 in the absence or presence of Example 1 (CFU count and ODλ600). It counts as cell-based. The following applies: Sauton's media; Example 1 25 μM or Q203 0.4 μM alone; day 15; compared to DMSO control.
Consider `O=C(O)[C@@H]1CSc2c(C3CC3)c(Cc3cccc4ccccc34)cc(=O)n21` [Example 1, (3R)-7-Cyclopropyl-6-[(1-naphthyl)methyl]-4-oxo-1-thia-3a-aza-3-indancarboxylic acid], for which the “ODλ600 value (FIG. 3b)” value is reported as “decrease the ODλ600 value considerably”.

Consider `CCc1nc2ccc(Cl)cn2c1C(=O)NCc1ccc(N2CCC(c3ccc(OC(F)(F)F)cc3)CC2)cc1` [Example Q203, 6-chloro-2-ethyl-N-[(4-{4-[4-(trifluoromethoxy)phenyl]piperidin-1-yl}phenyl)methyl]imidazo[1,2-a]pyridine-3-carboxamide, reference compound], for which the “ODλ600 value (FIG. 3b)” value is reported as “decrease the ODλ600 value considerably”.

The next assay deals with Mtb. The experiment in a line: Microplate Alamar Blue Assay (MABA). The settings on record: Mycobacterium tuberculosis. It counts as cell-based. The protocol:
The IC50 value was measured for the compounds 55-65. The measurement was made in accordance with the Microplate Alamar Blue Assay (MABA) as described by Franzblau, S. G. et al in Tuberculosis (Edinb). 92, 453-88 (2012: The MABA utilizes the dye resazurin, which is dark blue and nonfluorescent in its oxidized form but becomes pink and fluorescent when reduced to resorufin as a result of cellular metabolism. The MABA is commonly used to evaluate the efficacy of compounds in restraining Mtb growth, but also serves as an assay for aerobic respiration. The degree of the color change was monitored and quantified, and performing this assay with a range of compound concentrations allowed for calculating IC50 values for compounds. The IC50 value is defined as the concentration of the compound that inhibits the MABA color change by 50%.
(Resazurin is reduced to fluorescent resorufin, in cell work by metabolically active cells.)
As a reminder, the IC50 is the point on the concentration scale where inhibition reaches its midpoint. A lower IC50 goes with inhibition by little substance. On to `O=C(O)C1CSc2c(C3CC3)c(-c3nc4ccccc4o3)cc(=O)n21` (stereo not shown) [Example 55, 1H-imidazol-1-ium 7-(benzo[d]oxazol-2-yl)-8-cyclopropyl-5-oxo-3,5-dihydro-2H-thiazolo[3,2-a]pyridine-3-carboxylate], for which it took 39.1 µM to reach half-maximal inhibition (IC50). With `O=C(O)C1CSc2c(C3CC3)c(-c3cc(-c4cccc5ccccc45)no3)cc(=O)n21` (stereo not shown) [Example 56, 1H-imidazol-1-ium 8-cyclopropyl-7-(3-(naphthalen-1-yl)isoxazol-5-yl)-5-oxo-3,5-dihydro-2H-thiazolo[3,2-a]pyridine-3-carboxylate], the IC50 is 2.53 µM. In the case of `O=C(O)C1CSc2c(C3CC3)c(-c3cc(-c4cccc(C(F)(F)F)c4)no3)cc(=O)n21` (stereo not shown) [Example 57, 1H-imidazol-1-ium 8-cyclopropyl-5-oxo-7-(3-(3-(trifluoromethyl)phenyl)isoxazol-5-yl)-3,5-dihydro-2H-thiazolo[3,2-a]pyridine-3-carboxylate], inhibition was half-maximal at 2.53 µM (IC50). On the same count and under the same terms, with `O=C(O)C1CSc2c(C3CC3)c(-c3cc(-c4cccs4)no3)cc(=O)n21` (stereo not shown) [Example 58, 1H-imidazol-1-ium 8-cyclopropyl-5-oxo-7-(3-(thiophen-2-yl)isoxazol-5-yl)-3,5-dihydro-2H-thiazolo[3,2-a]pyridine-3-carboxylate] the figure was 28.9 µM.

As for `O=C(O)C1CSc2c(C3CC3)c(-c3cc(-c4ccccc4)no3)cc(=O)n21` (stereo not shown) [Example 59, 1H-imidazol-1-ium 8-cyclopropyl-5-oxo-7-(3-phenylisoxazol-5-yl)-3,5-dihydro-2H-thiazolo[3,2-a]pyridine-3-carboxylate], half-maximal inhibition (IC50) was put at 15.6 µM.

Compound `O=C(O)C1CSc2c(-c3cc(-c4ccccc4)no3)c(Cc3cccc4ccccc34)c(Br)c(=O)n21` (stereo not shown) [Example 60, 1H-imidazol-1-ium 6-bromo-7-(naphthalen-1-ylmethyl)-5-oxo-8-(3-phenylisoxazol-5-yl)-3,5-dihydro-2H-thiazolo[3,2-a]pyridine-3-carboxylate] displayed an IC50 of 4.51 µM. Still for that read-out and setting: with `O=C(O)C1CSc2c(C3CC(c4ccccc4)=NO3)c(Cc3cccc4ccccc34)cc(=O)n21` (stereo not shown) [Example 61, 1H-imidazol-1-ium 7-(naphthalen-1-ylmethyl)-5-oxo-8-(3-phenyl-4,5-dihydroisoxazol-5-yl)-3,5-dihydro-2H-thiazolo[3,2-a]pyridine-3-carboxylate] the figure was 82.7 µM; with `C#Cc1c(Cc2cccc3ccccc23)cc(=O)n2c1SCC2C(=O)O` (stereo not shown) [Example 62, 1H-imidazol-1-ium 8-ethynyl-7-(naphthalen-1-ylmethyl)-5-oxo-3,5-dihydro-2H-thiazolo[3,2-a]pyridine-3-carboxylate], 53.5 µM; with `O=C(O)C1CSc2c(-c3cc(-c4ccccc4)no3)c(Cc3cccc4ccccc34)cc(=O)n21` (stereo not shown) [Example 63, 1H-imidazol-1-ium 7-(naphthalen-1-ylmethyl)-5-oxo-8-(3-phenylisoxazol-5-yl)-3,5-dihydro-2H-thiazolo[3,2-a]pyridine-3-carboxylate], 12.7 µM. In the case of `O=C(O)C1CSc2c(-c3cc(-c4cccc5ccccc45)no3)c(Cc3cccc4ccccc34)cc(=O)n21` (stereo not shown) [Example 64, 1H-imidazol-1-ium 8-(3-(naphthalen-1-yl)isoxazol-5-yl)-7-(naphthalen-1-ylmethyl)-5-oxo-3,5-dihydro-2H-thiazolo[3,2-a]pyridine-3-carboxylate], the midpoint of inhibition, the IC50, lay at 14.4 µM. `O=C(O)C1CSc2c(C3CC3)c(Cc3cccc4ccccc34)cc(=O)n21` (stereo not shown) [Example 65, 1H-imidazol-1-ium 8-cyclopropyl-7-(naphthalen-1-ylmethyl)-5-oxo-3,5-dihydro-2H-thiazolo[3,2-a]pyridine-3-carboxylate] registered an IC50 of 8.47 µM.
